We go through five molecules from patent US10988508B2, “Synthetic N-acetyl-muramic acid derivatives and uses thereof” (University of Delaware, priority 2015, dated 2021).

Entries after “also recorded” stand apart in the source; their conditions may differ. Like-named read-outs stand apart in the source and are kept apart here.

Data set [1] concerns E. coli cells with AmgK, MurU and ΔMurQ. The experiment in a line: labeling efficiency by flow cytometry (FACS) after click with Cy-5. The class given is cell-based. Conditions: after CuAAC with Cy-5.
Data set [2] has as its system E. coli ΔmurQ-KU cells. The experiment in a line: in vivo peptidoglycan remodeling and CuAAC fluorophore labeling, visualized by SIM. The settings on record: 0.2% (w/v) sugar, fosfomycin 200 μg/mL, IPTG 1 mM, CuAAC with rhodamine or Cy-5. The class given is cell-based.
In data set [3] the target is T1, Nod2 (Homo sapiens, UniProt Q9HC29). Put plainly: Nod2-dependent NF-κB luciferase reporter assay in transfected HEK293T cells. The settings on record: 20 μM; for NF-KB Fold Activation ± SD: 12 h, HEK293T, (+) Nod2 plasmid normalized to (−) Nod2 plasmid.
T1 sequence (Q9HC29 whole entry): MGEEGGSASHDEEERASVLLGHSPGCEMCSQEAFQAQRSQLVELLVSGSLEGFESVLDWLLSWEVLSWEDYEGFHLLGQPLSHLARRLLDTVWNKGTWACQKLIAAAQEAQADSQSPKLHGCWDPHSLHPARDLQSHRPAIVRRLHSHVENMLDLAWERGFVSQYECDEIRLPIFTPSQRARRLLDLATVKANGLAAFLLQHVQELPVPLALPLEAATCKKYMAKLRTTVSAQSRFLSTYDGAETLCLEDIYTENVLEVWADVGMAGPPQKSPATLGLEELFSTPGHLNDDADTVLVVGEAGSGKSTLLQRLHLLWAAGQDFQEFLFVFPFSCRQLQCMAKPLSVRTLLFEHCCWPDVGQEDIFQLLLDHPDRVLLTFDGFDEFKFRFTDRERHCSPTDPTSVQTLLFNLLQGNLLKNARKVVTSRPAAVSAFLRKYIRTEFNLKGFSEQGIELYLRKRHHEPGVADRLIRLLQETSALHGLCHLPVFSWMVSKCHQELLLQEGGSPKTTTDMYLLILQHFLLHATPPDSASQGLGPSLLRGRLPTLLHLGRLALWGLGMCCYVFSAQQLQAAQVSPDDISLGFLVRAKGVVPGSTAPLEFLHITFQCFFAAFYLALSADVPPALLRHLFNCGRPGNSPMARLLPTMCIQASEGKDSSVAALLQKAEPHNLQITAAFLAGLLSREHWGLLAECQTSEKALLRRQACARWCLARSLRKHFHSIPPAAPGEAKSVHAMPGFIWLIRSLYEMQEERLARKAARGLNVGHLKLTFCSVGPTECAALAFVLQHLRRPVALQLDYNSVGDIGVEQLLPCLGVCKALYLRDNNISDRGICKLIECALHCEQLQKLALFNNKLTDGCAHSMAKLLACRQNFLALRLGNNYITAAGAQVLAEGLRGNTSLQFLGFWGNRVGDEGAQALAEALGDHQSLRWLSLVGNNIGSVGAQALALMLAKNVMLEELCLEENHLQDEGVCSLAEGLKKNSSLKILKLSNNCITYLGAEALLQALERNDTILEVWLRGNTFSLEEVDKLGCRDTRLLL
The target of data set [4] is T1, Nod2. The experiment in a line: Nod2 half-life by cycloheximide chase and western blot in HEK 293T-Nod2myc/Tet-op cells. Conditions: for stabilization of Nod2 (in words): compared to untreated control. The class given is cell-based. Set-up: expressed in transfected cells; host or cells: HEK293T. The method, then: HEK 293T-Nod2myc/Tet-op cells were incubated with MDP derivatives (compound D2 is shown) or water (Ctrl) and lysates were collected after cycloheximide treatment during the indicated time intervals. Equal amount of lysates were subjected to western blot and probed using rabbit anti-myc antibody. β-actin was used as a loading control.
Nod2 is a transiently stable protein. It is well-known that ligand binding can affect the stability of a receptor. We considered that the interaction of peptidoglycan derivatives with Nod2 could alter the stability of the protein. In order to determine if ligand interaction changes the half-life of Nod2, we analyzed the naturally occurring MDPs (D2, D9, D1), and a subset of the peptidoglycan derivatives with increased activity (D24, D25) or structural similarity (D53, D16) to D2 or D9. We made use of a tetracycline-induced Nod2 expressing cell line, an excellent match for endogenous Nod2 cell lines, and cycloheximide inhibition of protein synthesis to determine the half-life of Nod2 in the presence of the MDP derivatives. Half-life was determined by first order decay according to literature precedent. […] When Nod2 is not treated with a peptidoglycan derivative, the half-life is 7.1±1.4 hours. […] As compound D1 is the only compound tested that contains an amine, which will be positively charged at cellular pH, we were concerned that cell permeability may be a factor. We analyzed the ability of 6-amino-MDP (18 in Table 4), a MDP derivative that replaces the 6-primary-hydroxy group with an amine.

Data set [5] has as its target T2, mouse Nod2 (Mus musculus, UniProt Q8K3Z0).
T2 sequence (Q8K3Z0 1-1020): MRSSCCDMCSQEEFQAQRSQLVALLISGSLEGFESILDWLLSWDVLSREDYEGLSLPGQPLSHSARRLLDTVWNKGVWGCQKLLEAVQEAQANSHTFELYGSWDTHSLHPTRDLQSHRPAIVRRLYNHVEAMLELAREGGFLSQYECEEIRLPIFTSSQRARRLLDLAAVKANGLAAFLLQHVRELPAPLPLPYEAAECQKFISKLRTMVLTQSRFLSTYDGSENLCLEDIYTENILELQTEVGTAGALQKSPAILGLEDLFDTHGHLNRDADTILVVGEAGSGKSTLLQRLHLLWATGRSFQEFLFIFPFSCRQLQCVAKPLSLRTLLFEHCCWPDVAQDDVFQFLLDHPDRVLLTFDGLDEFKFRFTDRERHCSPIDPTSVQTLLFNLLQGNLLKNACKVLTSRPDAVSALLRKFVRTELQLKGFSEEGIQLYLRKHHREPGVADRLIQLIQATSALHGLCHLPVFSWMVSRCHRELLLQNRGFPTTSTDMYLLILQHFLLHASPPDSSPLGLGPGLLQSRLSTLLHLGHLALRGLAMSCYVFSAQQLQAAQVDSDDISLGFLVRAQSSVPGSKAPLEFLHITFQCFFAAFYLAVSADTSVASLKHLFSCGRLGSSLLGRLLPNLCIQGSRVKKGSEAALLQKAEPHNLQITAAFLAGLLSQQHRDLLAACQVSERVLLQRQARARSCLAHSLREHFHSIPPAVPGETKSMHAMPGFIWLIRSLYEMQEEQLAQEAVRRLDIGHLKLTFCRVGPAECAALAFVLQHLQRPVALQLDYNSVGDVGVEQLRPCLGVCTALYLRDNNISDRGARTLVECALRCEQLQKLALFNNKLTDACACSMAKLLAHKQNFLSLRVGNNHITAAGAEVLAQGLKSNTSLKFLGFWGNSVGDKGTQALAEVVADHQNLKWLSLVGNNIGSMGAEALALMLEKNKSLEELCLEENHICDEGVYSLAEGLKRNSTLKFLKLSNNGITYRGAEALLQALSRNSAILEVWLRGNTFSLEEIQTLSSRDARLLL
The settings on record: 200 μM, protein synthesis not inhibited; cited from earlier work.

Data set [6] deals with T1, Nod2. The experiment in a line: in vitro binding assay of Nod2. Also on record: expressed in transfected cells; host or cells: HEK293T. The text has this:
This could be from either the endogenous Nod2 and/or other targets of the bacterial cell wall ligands.

The target in data set [7] is T1, Nod2. Also on record: expressed in transfected cells; host or cells: HEK293T. The settings on record: cited from earlier work.

For `CC(=O)N[C@H]1C(O)O[C@H](CO)[C@@H](O)[C@@H]1O[C@H](C)C(=O)O` (some centres unmarked) [A2, N-acetyl-muramic acid], the “fluorescent signal in the gated Cy-5 channel” value in data set [1] is recorded as “slight fluorescence intensity”. In data set [2], the “fluorescent labeling of cells under SIM” value is “couldn't detect any fluorescence”.
With `C[C@@H](NC(=O)[C@@H](C)OC1C(NC(=O)CO)[C@@H](O)OC(CO)[C@H]1O)C(=O)NC(CCC(=O)O)C(N)=O` (some centres unmarked) [D9, N-glycolyl-MDP], the “NF-KB Fold Activation ± SD” value in data set [3] was determined as 3.1 ± 0.3 Fold. For the same molecule, the “stabilization of Nod2 (in words)” value in data set [4] is recorded as “capable of stabilizing Nod2”.
As for `C[C@H](NC(=O)[C@@H](C)O[C@@H]1[C@@H](N)[C@H](O)O[C@H](CO)[C@H]1O)C(=O)N[C@H](CCC(=O)O)C(N)=O` [D1, (R)-5-amino-4-((S)-2-((R)-2-(((2R,3R,4R,5S,6R)-3-amino-2,5-dihydroxy-6-(hydroxymethyl)tetrahydro-2H-pyran-4-yl)oxy)propanamido)propanamido)-5-oxopentanoic acid], in data set [3], the “NF-κB activation (in words)” value is given as “did not activate NF-κB; also recorded: does not elicit an immune response via the Nod2-dependent pathway” and the “NF-KB Fold Activation ± SD” value was “No activation”. For the same molecule, the “stabilization of Nod2 (in words)” value in data set [4] is recorded as “no stabilization of Nod2; also recorded: did not stabilize; also recorded: no stabilizing effect”.
Turning to `CC(=O)N[C@H]1C(O)O[C@H](CO)[C@@H](O)[C@@H]1O[C@H](C)C(=O)N[C@@H](C)C(=O)N[C@H](CCC(=O)O)C(N)=O` (some centres unmarked) [D2, N-acetyl-MDP], the “NF-KB Fold Activation ± SD” value in data set [3] was 1.8 ± 0.3 Fold. Further, the “effect on Nod2 level” value in data set [5] was “led to the degradation of Nod2”. In addition, the “stabilization of Nod2 (in words)” value in data set [4] is given as “capable of stabilizing Nod2”. Besides, in data set [6], the Kd worked out at 51 nM.
On to `CC(=O)NC1C(O)OC(CN)C(O)[C@@H]1O[C@H](C)C(=O)N[C@@H](C)C(=O)N[C@H](CCC(=O)O)C(N)=O` (some centres unmarked) [6-amino-MDP], for which, in data set [7], the “NF-κB activation in a Nod2-dependent manner (known)” value is recorded as “activate NF-κB in a Nod2-dependent manner”. The “NF-KB Fold Activation ± SD” value in data set [7] (value marked with reference 19) is 2.8 ± 0.1^19 Fold. In data set [4] (versus untreated), the “increase of the half-life of Nod2” value is about 3 fold.
